Laboratory results taken from patent US11548875B2, “Inhibitor compounds for male contraception” (University of Washington, priority 2018, dated 2023).

Experiments:
ALDH2 = target: T1, ALDH2 (Homo sapiens, UniProt P05091); assay: Purified ALDH2 assay with propanal, NADH fluorescence; assay type: biochemical; conditions: purified enzyme
T1 construct: histidine-tag (N); made in house; host or cells: bacterial expression (pETite vector, IPTG induction)
T1 sequence (P05091 18-517): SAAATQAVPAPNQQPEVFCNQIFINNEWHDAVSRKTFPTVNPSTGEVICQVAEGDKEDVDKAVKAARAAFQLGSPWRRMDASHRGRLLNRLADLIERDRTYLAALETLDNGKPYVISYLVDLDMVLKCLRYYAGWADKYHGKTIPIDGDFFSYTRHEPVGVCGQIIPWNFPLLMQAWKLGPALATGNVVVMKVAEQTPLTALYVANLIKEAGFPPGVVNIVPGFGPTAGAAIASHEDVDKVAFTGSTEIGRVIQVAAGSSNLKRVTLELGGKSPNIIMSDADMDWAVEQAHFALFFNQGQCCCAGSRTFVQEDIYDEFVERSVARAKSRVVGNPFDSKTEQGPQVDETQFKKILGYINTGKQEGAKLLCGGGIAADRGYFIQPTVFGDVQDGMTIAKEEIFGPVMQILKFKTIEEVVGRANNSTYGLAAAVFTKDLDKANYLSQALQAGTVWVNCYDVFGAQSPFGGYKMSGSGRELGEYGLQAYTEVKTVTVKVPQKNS
Excerpt: ALDHs were cloned into bacterial expression vector for in vitro enzyme assays and into mammalian expression vectors for cell-based enzyme assays. Human ALDH1A1 cDNA and human ALDH2 cDNA were purchased from OriGene (SC321535) and Open Biosystems (MHS4771-99611182), respectively. and human ALDH1A2 cDNA was cloned from human testis RNA using RT-PCR (Population Division of the Department of Economic and Social Affairs of the United Nations Secretariat. World Population prospects: the 2008 revision. Available at http://www.un.org/esa/population/ (Retrieved Sep. 30, 2011)). For bacterial expression, an open reading frame of ALDH1A1 and ALDH2 were subcloned into the pETite vector (Lucigen) with a 5′ histidine-tag and that of ALDH1A2 into a pET28 vector (Novagen) with a 3′ histidine-tag. Correct frame and sequences were verified through DNA sequencing (UW DNA sequencing facility). ALDHs were induced with 1 mM IPTG and purified using His.Bind resin (Novagen, San Diego, Calif.) and stored in a buffer containing 20 mM Hepes (pH 8), 150 mM KCl and 1 mM EDTA as previously described (Fierce, Y., de Morais Vieira, M., Piantedosi, R., Wyss, A., Blaner, W. S., and Paik, J. (2008) In vitro and in vivo characterization of retinoid synthesis from beta-carotene. Archives of biochemistry and biophysics 472, 126-138). […]
For this, 2 μg purified ALDH2, 20 μM propanal and varying concentrations of inhibitors were incubated at room temperature. Enzyme activity was determined by measuring fluorescence of NADH (Ex, 350 nm/Em, 460 nm) using a Victor3 plate reader (PerkinElmer), and initial velocity was calculated from two consecutive readings over 1 minute.

ALDH1A2 = target: T2, ALDH1A2 (Homo sapiens, UniProt O94788); assay: Inhibitor screening using purified enzymes: ALDH1A2 activity, retinoic acid production by HPLC (5 uM initial screen, then IC50); assay type: biochemical; parameters: histidine-tag (C); made in house; host or cells: bacterial expression (pET28 vector, IPTG induction); conditions: purified enzyme
T2 sequence (O94788 1-518): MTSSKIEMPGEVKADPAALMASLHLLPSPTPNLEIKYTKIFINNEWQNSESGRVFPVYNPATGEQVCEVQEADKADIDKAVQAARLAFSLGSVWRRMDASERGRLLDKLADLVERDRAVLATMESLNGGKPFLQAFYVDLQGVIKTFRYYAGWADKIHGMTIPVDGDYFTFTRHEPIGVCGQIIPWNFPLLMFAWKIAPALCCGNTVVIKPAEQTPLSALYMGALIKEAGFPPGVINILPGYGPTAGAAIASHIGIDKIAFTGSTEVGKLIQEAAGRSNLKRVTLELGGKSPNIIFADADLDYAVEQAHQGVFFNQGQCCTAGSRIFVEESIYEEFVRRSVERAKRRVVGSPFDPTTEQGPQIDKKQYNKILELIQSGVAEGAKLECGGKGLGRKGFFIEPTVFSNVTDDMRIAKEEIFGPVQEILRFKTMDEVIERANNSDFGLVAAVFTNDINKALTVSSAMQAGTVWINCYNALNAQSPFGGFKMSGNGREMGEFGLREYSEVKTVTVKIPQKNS
Excerpt: ALDHs were cloned into bacterial expression vector for in vitro enzyme assays and into mammalian expression vectors for cell-based enzyme assays. Human ALDH1A1 cDNA and human ALDH2 cDNA were purchased from OriGene (SC321535) and Open Biosystems (MHS4771-99611182), respectively. and human ALDH1A2 cDNA was cloned from human testis RNA using RT-PCR (Population Division of the Department of Economic and Social Affairs of the United Nations Secretariat. World Population prospects: the 2008 revision. Available at http://www.un.org/esa/population/ (Retrieved Sep. 30, 2011)). For bacterial expression, an open reading frame of ALDH1A1 and ALDH2 were subcloned into the pETite vector (Lucigen) with a 5′ histidine-tag and that of ALDH1A2 into a pET28 vector (Novagen) with a 3′ histidine-tag. Correct frame and sequences were verified through DNA sequencing (UW DNA sequencing facility). ALDHs were induced with 1 mM IPTG and purified using His.Bind resin (Novagen, San Diego, Calif.) and stored in a buffer containing 20 mM Hepes (pH 8), 150 mM KCl and 1 mM EDTA as previously described (Fierce, Y., de Morais Vieira, M., Piantedosi, R., Wyss, A., Blaner, W. S., and Paik, J. (2008) In vitro and in vivo characterization of retinoid synthesis from beta-carotene. Archives of biochemistry and biophysics 472, 126-138).
ALDH1A1 and ALDH1A2 activity was determined as previously reported (Beedle M T, Stevison F, Zhong G, Topping T, Hogarth C, Isoherranen N, Griswold M D. Sources of All-Trans Retinal Oxidation Independent of the Aldehyde Dehydrogenase 1A Isozymes Exist in the Postnatal Testis. Biol Reprod. 2018 Sep. 21. doi: 10.1093/biolre/ioy200). Briefly, purified enzymes were incubated in a buffer containing 10 mM HEPES buffer (pH 8.0), 150 mM potassium chloride and 2 mM EDTA with 2 mM NAD. Retinoic acid production was determined using HPLC as previously reported (Amory J K, Muller C H, Shimshoni A J, Isoherranen N, Paik J, Moreb J S, Amory D W, Evanoff R, Goldstein A S, Griswold M D. Suppression of spermatogenesis by bisdichloroacetyldiamines is mediated by inhibition of testicular retinoic acid biosynthesis. Journal of Andrology 2011; 32(1):111-119). Inhibitors were diluted in DMSO and added to the reactions. […] For initial screening of inhibitors for ALDH1A2, 1 μg ALDH1A2, 5 μM all-trans-retinal and 5 μM inhibitors were incubated for 15 min at 37° C. […] For this purpose, 0.5 μg ALDH1A2 and […] were incubated for 5 minutes at 37° C. with varying concentrations of inhibitors. To determine specificity toward ALDH1A2, the IC50 for […]

SMILES | IC50 (ALDH2) [µM] | IC50 (ALDH1A2) [µM]
COC(=O)c1ccc(-c2nn(-c3ccccc3)cc2C=O)cc1 [Cmpd 33] | 0.077 | 0.198
COc1cccc(NC(=O)c2cn(-c3ccccc3)nc2-c2ccc([N+](=O)[O-])cc2)c1 [Compound 103, N-(3-Methoxyphenyl)-3-(4-nitrophenyl)-1-phenyl-1H-pyrazole-4-carboxamide] | 313 | 0.62
O=C(Nc1cccc(F)c1)c1cn(-c2ccccc2)nc1-c1ccc([N+](=O)[O-])cc1 [Compound 106, N-(3-fluorophenyl)-3-(4-nitrophenyl)-1-phenyl-1H-pyrazole-4-carboxamide] | 146 | 0.07
O=C(Nc1ccccc1C(F)(F)F)c1cn(-c2ccccc2)nc1-c1ccc([N+](=O)[O-])cc1 [Compound 150, 3-(4-Nitrophenyl)-1-phenyl-N-[2-(trifluoromethyl)phenyl]-1H-pyrazole-4-carboxamide] | 13 | 0.17
O=C(Nc1cccc(C(F)(F)F)c1)c1cn(-c2ccccc2)nc1-c1ccc([N+](=O)[O-])cc1 [Compound 151, 3-(4-Nitrophenyl)-1-phenyl-N-[3-(trifluoromethyl)phenyl]-1H-pyrazole-4-carboxamide] | 24.6 | 0.822
O=C(Nc1ccccc1O)c1cn(-c2ccccc2)nc1-c1ccc([N+](=O)[O-])cc1 [Compound 165, N-(2-Hydroxyphenyl)-3-(4-nitrophenyl)-1-phenyl-1H-pyrazole-4-carboxamide] | 23.3 | 0.211
O=C(Nc1cccc(O)c1)c1cn(-c2ccccc2)nc1-c1ccc([N+](=O)[O-])cc1 [Compound 166, N-(3-Hydroxyphenyl)-3-(4-nitrophenyl)-1-phenyl-1H-pyrazole-4-carboxamide] | 95.2 | 0.779
O=C(Nc1ccc(O)cc1)c1cn(-c2ccccc2)nc1-c1ccc([N+](=O)[O-])cc1 [Compound 167, N-(4-Hydroxyphenyl)-3-(4-nitrophenyl)-1-phenyl-1H-pyrazole-4-carboxamide] | 16.9 | 0.397
Nc1cccc(NC(=O)c2cn(-c3ccccc3)nc2-c2ccc([N+](=O)[O-])cc2)c1 [Compound 173, N-(3-Aminophenyl)-3-(4-nitrophenyl)-1-phenyl-1H-pyrazole-4-carboxamide] | 73.7 | 0.383
CS(=O)(=O)c1ccc(-c2nn(-c3ccccc3)cc2C(=O)Nc2ccc(F)c(F)c2)cc1 [Compound 207, 3-(4-(Methylsulfonyl)phenyl)-N-(3,4-difluorophenyl)-1-phenyl-1H-pyrazole-4-carboxamide] | 10.3 | 0.01
CS(=O)(=O)c1ccc(-c2nn(-c3ccccc3)cc2C(=O)Nc2cccc(C(F)(F)F)c2)cc1 [Compound 208, 3-(4-(Methylsulfonyl)phenyl)-N-(3-trifluoromethylphenyl)-1-phenyl-1H-pyrazole-4-carboxamide] | 145 | 0.01
CC(=O)Oc1ccccc1NC(=O)c1cn(-c2ccccc2)nc1-c1ccc(S(C)(=O)=O)cc1 [Compound 210, N-(2-Acetoxyphenyl)-3-[4-(methylsulfonyl)phenyl]-1-phenyl-1H-pyrazole-4-carboxamide] | 112 | 0.032

More lines, now with the values ahead:

IC50 (ALDH2) [µM] | IC50 (ALDH1A2) [µM] | SMILES
15.2 | 0.217 | COC(=O)c1cn(-c2ccccc2)nc1-c1ccc([N+](=O)[O-])cc1 [Compound 229, Methyl 3-(4-nitrophenyl)-1-phenyl-1H-pyrazole-4-carboxylate]
40.9 | – | CS(=O)(=O)c1ccc(-c2nn(-c3ccccc3F)cc2C(=O)Nc2ccccc2O)cc1 [Compound 238, N-(2-Hydroxphenyl)-3-[4-(methylsulfonyl)phenyl]-1-(2-fluoropheny)-1H-pyrazole-4-carboxamide]
9.6 | 0.271 | CS(=O)(=O)c1ccc(-c2nn(-c3cccc(Cl)c3)cc2C(=O)Nc2cccc(F)c2)cc1 [Compound 239, N-(3-Fluorophenyl)-3-[4-(methylsulfonyl)phenyl]-1-(3-chloropheny)-1H-pyrazole-4-carboxamide]
62 | 0.076 | CS(=O)(=O)c1ccc(-c2nn(-c3cccc(F)c3)cc2C(=O)Nc2ccccc2O)cc1 [Compound 243, N-(2-Hydroxyphenyl)-3-[4-(methylsulfonyl)phenyl]-1-(3-fluorophenyl)-1H-pyrazole-4-carboxamide]
61.2 | 0.119 | CS(=O)(=O)c1ccc(-c2nn(-c3cccc(F)c3)cc2C(=O)Nc2ccc(OC(F)(F)F)cc2)cc1 [Compound 246, N-(4-Trifluoromethoxyphenyl)-3-[4-(methylsulfonyl)phenyl]-1-(3-fluorophenyl)-1H-pyrazole-4-carboxamide]
35.9 | 0.038 | CS(=O)(=O)c1ccc(-c2nn(-c3cccc(F)c3)cc2C(=O)Nc2ccc(C#N)cc2)cc1 [Compound 249, N-(4-Cyanophenyl)-3-[4-(methylsulfonyl)phenyl]-1-(3-fluorophenyl)-1H-pyrazole-4-carboxamide]
85.8 | 0.291 | CS(=O)(=O)c1ccc(-c2nn(-c3cccc(F)c3)cc2C(=O)Nc2cccc(C(F)(F)F)c2)cc1 [Compound 250, N-(3-Trifluoromethyphenyl)-3-[4-(methylsulfonyl)phenyl]-1-(3-fluorophenyl)-1H-pyrazole-4-carboxamide]
